Laboratory results: patent publication US11174234B2, “Crystal form of 4-phenylthiazole derivative and preparation method thereof” (SICHUAN KELUN PHARMACEUTICAL RESEARCH INSTITUTE CO., LTD., priority 2018, dated 2021)
≈ marks a conversion by molar mass, not a printed value. Each block holds one molecule with its values, some of them ahead of it.

Columns and labels:
[1] = Solubility test (HPLC external standard method); assay type: physicochemical
Experimental: In this Experimental Example, the solubility of two crystal form in different pH of simulated human gastric juice were tested to study the solubility of the crystal forms.
Solubility test: HPLC external standard method
(§1) Chromatographic column: octadecyl silane bonded silica gel as filler
Mobile phase: phosphate buffer (pH3.5):methanol:acetonitrile=2:9:9 (volume ratio)
Detection wavelength: 215 nm
Excess amount of Crystal Form D and Crystal Form Y were placed in tubes with plug, to which were added 10 ml of water (purified water), hydrochloric acid solution of pH 1.2, hydrochloric acid solution of pH 2.0, acetate buffer of pH 4.0, phosphate buffers of pH 4.5, 5.0, 6.8, 8.0, respectively, and vibrated on 37° C. water bath, then filtered. The subsequent filtrate was subjected to HPLC assay.
The preparations of various pH buffers can be referred to “Guideline for Dissolution Test of Normal Oral Solid Formulation” issued by Center for Drug Evaluation of China Food and Drug Administration for dissolution medium, and are detailed as follows:
The hydrochloric acid solution of pH 1.2 is prepared by diluting 7.65 ml of hydrochloric acid with water to 1000 ml and mixing well.
The hydrochloric acid solution of pH 2.0 is prepared by diluting 1.17 ml of hydrochloric acid with water to 1000 ml and mixing well.
The acetate buffer of pH 4.0 is prepared by diluting mixture of 1.22 g of sodium acetate with 20.5 ml of 2 mol/L acetic acid solution with water to 1000 ml and mixing well. The 2 mol/L acetic acid solution is prepared by diluting 114 mL of glacial acetic acid with water to 1000 ml.
The phosphate buffers of pH 4.5, 5.0, 6.8, 8.0 are prepared by adjusting pH of 0.2 mol/L monopotassium phosphate solution with 0.2 mol/L sodium hydroxide solution to pH 4.5, 5.0, 6.8, 8.0, respectively. The 0.2 mol/L monopotassium phosphate solution is prepared by dissolving 27.22 g of monopotassium phosphate in water and diluting to 1000 mL. The 0.2 mol/L sodium hydroxide solution is prepared by dissolving 8.00 g of sodium hydroxide in water and diluting to 1000 mL.

[2] = Pharmacokinetic study in monkeys; assay type: in vivo; conditions: administered to monkeys
[3] = High humidity stability test; assay type: physicochemical; conditions: RH 92.5%; for Weight loss on drying / Purity Change: room temperature; for Purity Change: open dish
From the text: (§2) In this Experimental Example, high temperature, high humidity tests were used to study the chemical stability of the crystal form according to the invention.
(§3) Purity test: HPLC method (Chinese Pharmacopoeia 2015, Volume IV, general principles 0512)
as §1
(§4) Mobile phase A: 0.02 mol/L phosphate buffer (pH 3.0)-methanol-acetonitrile
(§5) Mobile phase B: methanol-acetonitrile-water
(§6) Detection wavelength: 215 nm.
(§7) Elution condition: gradient elution
Weight loss on drying assay: Chinese Pharmacopoeia 2015, Volume IV, general principles 0831
(§8) Note: Purity Change=(Difference of sample purity at day 0 and sample purity after a certain period)/Sample purity at day 0×100%.
The Crystal Form D of the compound of formula I was spread in open petri dish with thickness ≤5 mm, at room temperature, in constant temperature incubator of relative humidity (RH) 92.5%. Samples were taken 10 day/30 day for impurity content determination.

[4] = Pharmacokinetic study in mice; assay type: in vivo; conditions: administered to mice
[5] = Long-term and accelerated stability test; assay type: physicochemical
From the text: as §3, §1, §4, §5, §6, §7
The Crystal Form D of the compound of formula I was packed with inner bag (pharmaceutical low density polyethylene bag) and outer bag (pharmaceutical polyester/aluminum/polyethylene composite film bag), placed under the following stability testing conditions for stability tests.

[6] = Pharmacokinetic study in dogs; assay type: in vivo; conditions: administered to dogs
[7] = High temperature stability test; assay type: physicochemical; conditions: 60° C.; for Purity Change: sealed glass bottle
From the text: as §2, §3, §1, §4, §5, §6, §7
The Crystal Form D of the compound of formula I was placed in a sealed and clean glass bottle and placed in 60° C. constant temperature oven. Samples were taken 10 day/30 day respectively for impurity content determination.
as §8

[8] = Thermogravimetric Analysis (TGA); assay type: physicochemical; conditions: heating rate 10K/min, N2 purge, 35-500° C.
Experimental: “Thermogravimetric Analysis (TGA)” is a common method for determining the thermal stability of compounds. The TGA curve can be measured, for example, on a Mettler Toledo TGA1 instrument. The error of TGA may be within about ±0.5 wt %. The term “substantially identical” means that such error variations are considered. Exemplary test conditions are: temperature range is 35-500° C., heating rate is 10 K/min, and purge gas is nitrogen (99.99%).
TGA is collected on Mettler Toledo TGA1 Thermogravimetric Analyzer, purge gas is N2 (99.99%), 100 ml/min; heating rate: 10K/min; temperature range: 35-500° C.
In the curve, the sample began to decompose at about 230° C. and no weight loss was found before decomposition.

[9] = hydrochloric acid solution pH 1.2, 37° C.
[10] = hydrochloric acid solution pH 2.0, 37° C.
[11] = phosphate buffer pH 4.5, 37° C.
[12] = phosphate buffer pH 5.0, 37° C.
[13] = phosphate buffer pH 6.8, 37° C.
[14] = phosphate buffer pH 8.0, 37° C.
[15] = high humidity condition, up to 30 day
[16] = high temperature condition, up to 30 day

Solubility ([1]; acetate buffer pH 4.0, 37° C.): 0.4327 µg/mL (≈ 0.731 µM)
Solubility [1, 9]: 0.7616 µg/mL (≈ 1.29 µM)
Solubility [1, 10]: 0.4915 µg/mL (≈ 0.831 µM)
Solubility [1, 11]: 0.5623 µg/mL (≈ 0.951 µM)
Solubility [1, 12]: 0.6993 µg/mL (≈ 1.18 µM)
Solubility [1, 13]: 3.2046 µg/mL (≈ 5.42 µM)
Solubility [1, 14]: 43.0713 µg/mL (≈ 72.8 µM)
Solubility ([1]; water (purified water), 37° C.): 5.2325 µg/mL (≈ 8.85 µM)
SMILES: CCCCCCO[C@@H](C)c1cccc(-c2csc(NC(=O)c3cc(Cl)c(/C=C(\C)C(=O)O)c(Cl)c3)n2)c1OC [Crystal Form Y, 4-phenylthiazole derivative]

Solubility ([1]; acetate buffer pH 4.0, 37° C.): 10.6478 µg/mL (≈ 18 µM)
Solubility [1, 9]: 19.1353 µg/mL (≈ 32.3 µM)
Solubility [1, 10]: 14.5872 µg/mL (≈ 24.7 µM)
Solubility [1, 11]: 11.4829 µg/mL (≈ 19.4 µM)
Solubility [1, 12]: 13.8229 µg/mL (≈ 23.4 µM)
Solubility [1, 13]: 36.0017 µg/mL (≈ 60.9 µM)
Solubility [1, 14]: 110.5589 µg/mL (≈ 187 µM)
Solubility ([1]; water (purified water), 37° C.): 41.3607 µg/mL (≈ 69.9 µM)
Pharmacokinetic properties [2]: good pharmacokinetic properties
Weight loss on drying ([3]; 0 day): 0.31%
Weight loss on drying ([3]; 10 day): 0.35%
Weight loss on drying ([3]; 30 day): 0.36%
Purity Change ([3]; 10 day): 0.05%
Purity Change ([3]; 30 day): 0%
Change in crystal form (XRPD) [3, 15]: no change in crystal form
Change in purity (in words) [3, 15]: did not show obvious change in purity
Change in weight loss on drying (in words) [3, 15]: little change in weight loss on drying
Pharmacokinetic properties [4]: good pharmacokinetic properties
Change in purity or crystal form (in words) ([5]; 6 month or more under long-term and accelerated conditions): no change in purity or crystal form
Chemical purity ([5]; Accelerated (40° C. ± 2° C./RH75% ± 5%), 0 day): 99.83%
Chemical purity ([5]; Accelerated (40° C. ± 2° C./RH75% ± 5%), 6 month): 99.83%
Chemical purity ([5]; Long-term (25° C. ± 2° C./RH60% ± 5%), 0 day): 99.83%
Chemical purity ([5]; Long-term (25° C. ± 2° C./RH60% ± 5%), 6 month): 99.83%
Chemical purity ([5]; Long-term (30° C. ± 2° C./RH65% ± 5%), 0 day): 99.83%
Chemical purity ([5]; Long-term (30° C. ± 2° C./RH65% ± 5%), 6 month): 99.83%
Pharmacokinetic properties [6]: good pharmacokinetic properties
Purity Change ([7]; 10 day): 0.04%
Purity Change ([7]; 30 day): 0.03%
Change in crystal form (XRPD) [7, 16]: no change in crystal form
Change in purity (in words) [7, 16]: did not show obvious change in purity
Temperature at which the sample began to decompose (TGA) [8]: about 230 °C
SMILES: CCCCCCO[C@@H](C)c1cccc(-c2csc(NC(=O)c3cc(Cl)c(/C=C(\C)C(=O)O)c(Cl)c3)n2)c1OC [Crystal Form D, 4-phenylthiazole derivative]
Solubility compared with Crystal Form Y ([1]; simulated human gastric juice with various pH): significantly better than that of Crystal Form Y
